Results reported in publication PMC6143625, “A high throughput screen for next-generation leads targeting malaria parasite transmission” (Nature Communications, 2018).
Several values for one entry are separate records, joined by “and”; a condition that tells them apart may be missing. Equal values may be shown once.

Assays:
[1] = system: P. falciparum transmission to Anopheles stephensi mosquitoes; assay: P. falciparum standard membrane-feeding assay (SMFA), luciferase oocyst readout; assay type: in vivo, Plasmodium falciparum; conditions: 10 µM; for prevalence of infection, % of the DMSO control / mean normalised luciferase intensity: indirect mode; for mean normalised luciferase intensity: 24 h gametocyte incubation, oocysts 8 days later; for Average oocyst intensity / Prevalence: mode indirect, per experiment
Description: SMFAs were performed commercially by TropiQ Health Sciences (Nijmegen, The Netherlands)[26]. Cultures of mature stage V gametocytes of P. falciparum expressing a GFP-Luciferase fusion protein under the control of the hsp70 promoter were treated with DMSO or 10 µM of test compound for 24 h (indirect mode). They were then mixed with uninfected erythrocytes and pelleted. The cell pellet was resuspended in human serum to form the blood meal and fed to Anopheles stephensi mosquitoes. […] Eight days after infection, mosquitoes were individually processed and their lysate assessed for luciferase activity in comparison to uninfected mosquitoes.

[2] = Stability analysis of DDD599/BPCA (pH buffers, simulated gastric fluid, glutathione); assay type: physicochemical
Description: (§1) DMPK analyses were performed by the Dundee University Drug Discovery Unit and BPCA/DDD599 stability analysis were undertaken by chemists at GlaxoSmithKline using in-house, standardised approaches.
123 Supplementary Table 1. Stability analysis of DDD599/BPCA pH10 Ox pH10 pH6 Ox pH6 pH4 Ox pH4 SGF Ox SGF GSH
Additionally, it was also tested in the presence of glutathione. Green text denoted acceptable 127 stability and red text denotes unacceptable stability under test conditions. At pH10 regardless of the presence of 128 H2O2, DDD599/BPCA was unfavourably unstable. […]

[3] = Aqueous solubility (DMPK); assay type: physicochemical; conditions: aqueous medium
Description: as §1

[4] = system: P. falciparum transmission to Anopheles stephensi mosquitoes; assay: P. falciparum standard membrane-feeding assay (SMFA), luciferase oocyst readout; assay type: in vivo, Plasmodium falciparum; conditions: 10 µM
[5] = Pharmacokinetic analysis in naïve mice; assay type: in vivo, BALB/c mice
Description: DDD291 and DDD881 were then evaluated for in vivo transmission-blocking activity in a mouse model of transmission. […] DDD881 was also administered similarly on day 4 of infection only 30 min prior to mosquito feed in a separate cohort of mice (Supplementary Data 5).
Eight phenylhydrazine-treated mice were infected with P. berghei constitutively expressing GFP. On day 3 of infection, they were assigned into four groups of two mice (DMSO A + B; DDD291 A + B; DDD881 A + B and C + D). Three groups received either 50 mg kg^−1 DDD291, 50 mg kg^−1 DDD881 or DMSO + vehicle control by IP injection. […] The fourth group received a 50 mg kg^−1 DDD881 dose on day 4, 30 min prior to mosquito feed. c Seven days after feeding, mosquitoes were dissected (n = 17–52 per condition) and oocysts recorded by fluorescent microscopy and automated image analysis. Horizontal bars indicate the mean. d PK analysis of DDD881. BALB/c mice were dosed with 50 mg kg^−1 DDD881 (n = 3) and plasma concentrations were monitored over time.

[6] = system: P. berghei 507 strain in mice, transmission to Anopheles stephensi; assay: P. berghei mosquito (direct) feeding assay in infected mice; assay type: in vivo, Plasmodium berghei; conditions: for transmission blocking efficacy at the oocyst level: 24 h before mosquito feeding; for suppression of gametocytaemia compared to vehicle-only controls: 24 h exposure; for effect on asexual parasitaemia: single dose; for Infection Prevalence (%) / Mean oocysts per mosquito / Asexual parasitemia (%) Before treatment / Gametocytemia (%) Before treatment / Asexual parasitemia (%) 24hr After treatment / Gametocytemia (%) 24hr After treatment: per mouse; for Asexual parasitemia (%) Before treatment / Gametocytemia (%) Before treatment / Asexual parasitemia (%) 24hr After treatment / Gametocytemia (%) 24hr After treatment: 50mg/kg; for Asexual parasitemia (%) Before treatment / Gametocytemia (%) Before treatment: baseline
Description: Six- to eight-week female T0 mice were treated with phenylhydrazine 3 days prior to intraperitoneal (IP) inoculation with 100 µl of mouse blood infected with the constitutively GFP expressing P. berghei 507 strain[39]. On day 3 after infection, thin blood smears were taken from tail blood to quantify parasitaemia and gametocytaemia. […] […] Twenty-four hours after feeding, unfed mosquitoes were removed and remaining mosquitoes maintained for a further 9 days on sucrose solution. Mosquito midguts were then dissected, imaged and oocysts quantified by semi-automated computer analysis.

[7] = Parallel artificial membrane permeability assay (PAMPA); assay type: in vitro ADME
Description: as §1

[8] = Mouse liver microsome clearance; assay type: in vitro ADME
Description: as §1

[9] = mouse, plasma, intraperitoneal, 50 mg kg^−1, BALB/c mice, n = 3
[10] = Dose 30min prior, listed as DDD881

O=C(CCl)Nc1ccc(Br)cc1 [BPCA, N-(4-bromophenyl)-2-chloroacetamide]
prevalence of infection, % of the DMSO control [1]: 25.12%
mean normalised luciferase intensity [1]: 5.27 arbitrary units
remaining at 24 h ([2]; Britton Robinson pH4 buffer + 20M% H2O2, pH 4, pH4 Ox): 100%
remaining at 24 h ([2]; Britton Robinson pH4 buffer, pH 4): 100%
half-life ([2]; Britton Robinson pH4 buffer, pH 4, pH4 = Britton Robinson pH4): > 41.7 days
remaining at 24 h ([2]; Britton Robinson pH6 buffer + 20M% H2O2, pH 6, pH6 Ox): 100%
remaining at 24 h ([2]; Britton Robinson pH6 buffer, pH 6): 100%
remaining at 24 h ([2]; Britton Robinson pH10 buffer + 20M% H2O2, pH 10, pH10 Ox): 87%
remaining at 24 h ([2]; Britton Robinson pH10 buffer, pH 10): 87%
t10% degradation / hours ([2]; GSH): < 1 h
remaining at 24 h ([2]; Phosphate buffer pH7.4 with 5mM Glutathione, pH 7.4, GSH): 0%
t10% degradation / hours ([2]; SGF): 118 h
half-life ([2]; SGF = Simulated Gastric Fluid): 25.3 days
t10% degradation / hours ([2]; SGF Ox): 512 h
half-life ([2]; SGF Ox = Simulated Gastric Fluid + 20M% H2O2): > 41.7 days
remaining at 24 h ([2]; Simulated Gastric Fluid + 20M% H2O2, SGF Ox): 99%
remaining at 24 h ([2]; Simulated Gastric Fluid, SGF): 98%
t10% degradation / hours ([2]; pH4): > 1000 h
half-life ([2]; pH 4, pH4 Ox = Britton Robinson pH4 buffer + 20M% H2O2): > 41.7 days
t10% degradation / hours ([2]; pH4 Ox): > 1000 h
t10% degradation / hours ([2]; pH6): > 1000 h
half-life ([2]; pH 6, pH6 = Britton Robinson pH6 buffer): > 41.7 days
half-life ([2]; pH 6, pH6 Ox = Britton Robinson pH6 buffer + 20M% H2O2): > 41.7 days
t10% degradation / hours ([2]; pH6 Ox): > 1000 h
half-life ([2]; pH 7.4, GSH = Phosphate buffer pH7.4 with 5mM Glutathione): < 0.0417 days
t10% degradation / hours ([2]; pH10): 18 h
half-life ([2]; pH 10, pH10 = Britton Robinson pH10 buffer): 3.92 days
half-life ([2]; pH 10, pH10 Ox = Britton Robinson pH10 buffer + 20M% H2O2): 3.83 days
t10% degradation / hours ([2]; pH10 Ox): 18 h

O=S(=O)(NCC1(O)CCOc2ccccc21)c1ccc(Br)s1 (stereo not shown) [DDD01035881]
solubility [3]: > 250 µM
Average oocyst intensity ([1]; listed as DDD881): 4.2 and 4.1
Prevalence ([1]; listed as DDD881): 1.4% and 0.0%
mean normalised luciferase intensity ([4]; direct mode): 0.26
prevalence, % of DMSO control ([4]; direct mode): 0.49%
Average oocyst intensity ([4]; mode direct, per experiment): 2.8
Prevalence ([4]; mode direct, per experiment): 0.0%
plasma concentration ([5]; 50 mg kg^−1, up to 120 min after dosing): ~ 1000 ng ml^−1
Cmax [5, 9]: 1580 ng/mL
Tmax [5, 9]: 0.00346 days
blockade on oocyst intensity ([6]; 50 mg kg^−1 IP, 30 min before the feed): 99.6%
transmission blocking efficacy at the oocyst level ([6]; 50 mg kg^−1 IP): no transmission blocking efficacy
suppression of gametocytaemia compared to vehicle-only controls ([6]; 50 mg kg^−1 IP): not impacted
effect on asexual parasitaemia ([6]; 50 mg kg^−1 IP): not impacted
Infection Prevalence (%) [6, 10]: 54.35% and 23.08%
Mean oocysts per mosquito [6, 10]: 1.43 and 0.60
Infection Prevalence (%) ([6]; Dose 24hr prior to feeding): 100%
Mean oocysts per mosquito ([6]; Dose 24hr prior to feeding, listed as DDD881): 330.22 and 190.61

OC1(CN2CCC(Oc3cccc(C(F)(F)F)c3)CC2)CCNC1 (stereo not shown) [DDD01245291]
solubility [3]: > 250 µM
Papp [7]: 0.59 ×10⁻⁶ cm/s
prevalence of infection, % of the DMSO control [1]: no infected mosquitoes observed
mean normalised luciferase intensity [1]: 1.37 arbitrary units
Prevalence [1]: 0.0%
Average oocyst intensity ([1]; listed as DDD291): 2.7 and 3.2 and 3.3
mouse liver microsome clearance rate [8]: 4.2 ml min^−1 g^−1 Liver
transmission blocking efficacy at the oocyst level ([6]; 50 mg kg^−1 IP): not possible to measure a reduction in transmission at the oocyst level
suppression of gametocytaemia compared to vehicle-only controls ([6]; 50 mg kg^−1 IP): ~ 6 fold
effect on asexual parasitaemia ([6]; 50 mg kg^−1 IP): did not affect asexual parasitaemia
Infection Prevalence (%) ([6]; Dose 24hr prior to feeding): 100%
Mean oocysts per mosquito ([6]; Dose 24hr prior to feeding, listed as DDD291): 239.06 and 211.28
Asexual parasitemia (%) Before treatment ([6]; listed as DDD291, 50 mg/kg): 0.86% and 0.55%
Gametocytemia (%) Before treatment ([6]; listed as DDD291, 50 mg/kg): 0.32% and 0.16%
Asexual parasitemia (%) 24hr After treatment ([6]; listed as DDD291, 50 mg/kg): 5.70% and 4.55%
Gametocytemia (%) 24hr After treatment ([6]; listed as DDD291, 50 mg/kg): 0.30% and 0.51%

CC(C)CN1CCn2nc(CNc3ncnc4[nH]ccc34)cc2C1 [DDD01249504]
Asexual parasitemia (%) Before treatment ([6]; listed as DDD504, 50 mg/kg): 0.74% and 0.98%
Gametocytemia (%) Before treatment ([6]; listed as DDD504, 50 mg/kg): 0.21% and 0.15%
Asexual parasitemia (%) 24hr After treatment ([6]; listed as DDD504, 50 mg/kg): 5.35% and 7.03%
Gametocytemia (%) 24hr After treatment ([6]; listed as DDD504, 50 mg/kg): 1.21% and 1.88%
